Data on 65 compounds can be found in patent publication US12642270B2, “Substituted thiophene carboxamides, thiophene carboxylic acids and derivatives thereof” (Bayer Aktiengesellschaft, priority 2019, dated 2026).

Structures are written as SMILES.

The nature of the first data set: Log P by HPLC on reversed phase columns (EEC directive 79/831 Annex V.A8). Type of data set: physicochemical. The conditions noted are these: method [a]. As for the experimental part:
In the above tables, measurement of Log P values was performed according to EEC directive 79/831 Annex V.A8 by HPLC (High Performance Liquid Chromatography) on reversed phase columns with the following methods: • ^[a] Log P value is determined by measurement of LC-UV, in an acidic range, with 0.1% formic acid in water and acetonitrile as eluent (linear gradient from 10% acetonitrile to 95% acetonitrile). • ^[b] Log P value is determined by measurement of LC-UV, in a neutral range, with 0.001 molar ammonium acetate solution in water and acetonitrile as eluent (linear gradient from 10% acetonitrile to 95% acetonitrile). • ^[c] Log P value is determined by measurement of LC-UV, in an acidic range, with 0.1% phosphoric acid and acetonitrile as eluent (linear gradient from 10% acetonitrile to 95% acetonitrile). If more than one Log P value is available within the same method, all the values are given and separated by “+”. Calibration was done with straight-chain alkan2-ones (with 3 to 16 carbon atoms) with known Log P values (measurement of Log P values using retention times with linear interpolation between successive alkanones). Lambda-max-values were determined using UV-spectra from 200 nm to 400 nm and the peak values of the chromatographic signals.
In the case of `CCOC(=O)C(Cc1c[nH]c2ccccc12)NC(=O)c1sc(Br)c(Cl)c1C` (centres unmarked) [1.0132], the LogP is 4.11^[a]. Take `CCOC(=O)C(C)NC(=O)c1sc(Br)c(Br)c1F` (centres unmarked) [1.0133]: the LogP is 3.41^[a]. For `COC(=O)C(Cc1c[nH]cn1)NC(=O)c1sc(Br)c(Br)c1F` (centres unmarked) [1.0134], the LogP was 1.39^[a]. As for `CCOC(=O)C(COC)NC(=O)c1sc(Br)c(Br)c1F` (centres unmarked) [1.0135], the LogP was 3.46^[a].

As to `CCOC(=O)C(Cc1ccc(O)cc1)NC(=O)c1sc(Br)c(Br)c1F` (centres unmarked) [1.0136], the LogP was 3.31^[a]. Same read-out and setting: to `CCOC(=O)C(Cc1c[nH]c2ccccc12)NC(=O)c1sc(Br)c(Br)c1F` (centres unmarked) [1.0137] belongs 4.08^[a]; to `CCOC(=O)C(COC)NC(=O)c1sc(Br)c(Cl)c1C` (centres unmarked) [1.0138], 3.42^[a]. Same read-out and setting: with `CCSC(=O)C1(NC(=O)c2sc(Br)c(Br)c2I)CC1` [1.0139] the figure was 3.96^[a].

Regarding `CCOC(=O)C(C)NC(=O)c1sc(Br)c(Cl)c1C` (centres unmarked) [1.0140], the LogP is 3.35^[a].

As for `CCOC(=O)CNC(=O)c1sc(Br)c(Br)c1Cl` [1.0142], the LogP was 3.30^[a]. With `CCOC(=O)CCNC(=O)c1sc(Br)c(Br)c1Cl` [1.0143], the LogP is 3.53^[a]. On the same count and under the same terms, to `CCOC(=O)C1(NC(=O)c2sc(Br)c(Br)c2Cl)CCC1` [1.0144] belongs 4.27^[a]; to `CCOC(=O)C(NC(=O)c1sc(Br)c(Br)c1Cl)C(C)C` (centres unmarked) [1.0145], 4.92^[a].

Staying with this data set, now noted: method [a]; compounds of formula (I), Table 1.1.
As to `CCOC(=O)C(CCSC)NC(=O)c1sc(Br)c(Cl)c1C` (centres unmarked) [1.0079], the LogP was 3.94^[a]. Same read-out and setting: with `CCOC(=O)C(Cc1ccccc1)NC(=O)c1sc(Br)c(Cl)c1C` (centres unmarked) [1.0080] the figure was 4.46^[a]; with `CCOC(=O)CCNC(=O)c1sc(Br)c(Br)c1I` [1.0081], 3.48^[a]. Take `CCOC(=O)C1(NC(=O)c2sc(Br)c(Br)c2I)CCC1` [1.0082]: the LogP is 4.08^[a]. Same read-out and setting: with `COC(=O)C(CC(F)F)NC(=O)c1sc(Br)c(Br)c1I` (centres unmarked) [1.0083] the figure was 3.60^[a]; with `CCOC(=O)CCNC(=O)c1sc(Cl)c(Cl)c1Br` [1.0084], 3.50^[a]. With `CCOC(=O)C1(NC(=O)c2sc(Cl)c(Cl)c2Br)CCC1` [1.0085], the LogP is 4.23^[a]. Still for that read-out and setting: to `COC(=O)C(CC(F)F)NC(=O)c1sc(Cl)c(Cl)c1Br` (centres unmarked) [1.0086] belongs 3.60^[a]; to `CCOC(=O)CNC(=O)c1sc(Br)c(I)c1C` [1.0087], 3.09^[a]; to `CCOC(=O)CCNC(=O)c1sc(Br)c(I)c1C` [1.0088], 3.23^[a].

Regarding `CCOC(=O)C1(NC(=O)c2sc(Br)c(I)c2C)CC1` [1.0089], the LogP is 3.25^[a].

Consider `CCOC(=O)C1(NC(=O)c2sc(Br)c(I)c2C)CCC1` [1.0090], for which the LogP was 3.77^[a]. On the same count and under the same terms, with `CCOC(=O)C(NC(=O)c1sc(Br)c(I)c1C)C(C)C` (centres unmarked) [1.0091] the figure was 4.37^[a]. Regarding `COC(=O)C(CC(F)F)NC(=O)c1sc(Br)c(I)c1C` (centres unmarked) [1.0092], the LogP is 3.39^[a].

In the case of `CCOC(=O)C(CC(C)C)NC(=O)c1sc(Br)c(I)c1C` (centres unmarked) [1.0093], the LogP was 4.66^[a]. The same measure, in the same setting: to `CCOC(=O)C(CCSC)NC(=O)c1sc(Br)c(I)c1C` (centres unmarked) [1.0094] belongs 4.03^[a]; to `CCOC(=O)C(Cc1ccccc1)NC(=O)c1sc(Br)c(I)c1C` (centres unmarked) [1.0095], 4.53^[a]. As for `CCOC(=O)CNC(=O)c1sc(I)c(Br)c1C` [1.0096], the LogP was 3.02^[a]. On to `CCOC(=O)CCNC(=O)c1sc(I)c(Br)c1C` [1.0097], for which the LogP is 3.17^[a]. Still for that read-out and setting: to `CCOC(=O)C1(NC(=O)c2sc(I)c(Br)c2C)CC1` [1.0098] belongs 3.19^[a]; to `CCOC(=O)C1(NC(=O)c2sc(I)c(Br)c2C)CCC1` [1.0099], 3.71^[a]. As for `CCOC(=O)C(NC(=O)c1sc(I)c(Br)c1C)C(C)C` (centres unmarked) [1.0100], the LogP is 4.30^[a]. For `COC(=O)C(CC(F)F)NC(=O)c1sc(I)c(Br)c1C` (centres unmarked) [1.0101], the LogP is 3.33^[a]. The same measure, in the same setting: to `CCOC(=O)C(CC(C)C)NC(=O)c1sc(I)c(Br)c1C` (centres unmarked) [1.0102] belongs 4.56^[a]. Regarding `CCOC(=O)C(CCSC)NC(=O)c1sc(I)c(Br)c1C` (centres unmarked) [1.0103], the LogP was 3.96^[a]. Regarding `CCOC(=O)C(Cc1ccccc1)NC(=O)c1sc(I)c(Br)c1C` (centres unmarked) [1.0104], the LogP was 4.46^[a].

For `Cc1c(C(=O)NCC#N)sc(Cl)c1Br` [1.0105], the LogP was 2.58^[a].

For the compound `Cc1c(C(=O)NC2(C#N)CC2)sc(Cl)c1Br` [1.0106], the LogP was 2.78^[a]. With `Cc1c(C(=O)NC2(C#N)CCC2)sc(Cl)c1Br` [1.0107], the LogP was 4.53^[a]. On the same count and under the same terms, to `Cc1c(C(=O)NC(C#N)C(C)C)sc(Cl)c1Br` (centres unmarked) [1.0108] belongs 3.63^[a]. Consider `Cc1c(C(=O)NC(C#N)c2ccccc2)sc(Cl)c1Br` (centres unmarked) [1.0109], for which the LogP was 3.85^[a].

As to `Cc1c(C(=O)NC(C#N)Cc2ccccc2)sc(Cl)c1Br` (centres unmarked) [1.0110], the LogP was 3.99^[a]. Take `Cc1c(C(=O)NCC#N)sc(Br)c1Cl` [1.0111]: the LogP is 2.54^[a].

Regarding `Cc1c(C(=O)NC2(C#N)CC2)sc(Br)c1Cl` [1.0112], the LogP was 2.75^[a]. The same measure, in the same setting: to `Cc1c(C(=O)NC(C#N)c2ccccc2)sc(Br)c1Cl` (centres unmarked) [1.0113] belongs 3.81^[a]; to `Cc1c(C(=O)NC(C#N)Cc2ccccc2)sc(Br)c1Cl` (centres unmarked) [1.0114], 3.92^[a]. Same read-out and setting: to `N#CC1(NC(=O)c2sc(Br)c(Br)c2F)CC1` [1.0115] belongs 2.64^[a].

As for `N#CC1(NC(=O)c2sc(Br)c(Br)c2F)CCC1` [1.0116], the LogP was 3.11^[a].

Turning to `N#CC(NC(=O)c1sc(Br)c(Br)c1F)c1ccccc1` (centres unmarked) [1.0117], the LogP was 3.65^[a]. The same measure, in the same setting: with `N#CC(Cc1ccccc1)NC(=O)c1sc(Br)c(Br)c1F` (centres unmarked) [1.0118] the figure was 3.81^[a]. On the same count and under the same terms, to `COC(=O)C(NC(=O)c1sc(Cl)c(Br)c1C)C1CC1` (centres unmarked) [1.0119] belongs 3.39^[a]; to `COC(=O)C(NC(=O)c1sc(Br)c(Cl)c1C)C1CC1` (centres unmarked) [1.0120], 3.35^[a].

Consider `COC(=O)C(NC(=O)c1sc(Br)c(Br)c1F)C1CC1` (centres unmarked) [1.0121], for which the LogP was 3.43^[a].

Turning to `CCOC(=O)C(C)NC(=O)c1sc(Cl)c(Br)c1C` (centres unmarked) [1.0122], the LogP was 3.37^[a]. Take `COC(=O)C(Cc1c[nH]cn1)NC(=O)c1sc(Cl)c(Br)c1C` (centres unmarked) [1.0124]: the LogP is 1.48^[a].

`CCOC(=O)C(COC)NC(=O)c1sc(Cl)c(Br)c1C` (centres unmarked) [1.0125]: the LogP was 3.44^[a].

Turning to `CCOC(=O)C(Cc1ccc(O)cc1)NC(=O)c1sc(Cl)c(Br)c1C` (centres unmarked) [1.0126], the LogP was 3.33^[a]. Turning to `COC(=O)[C@H](CCCNC(=N)N)NC(=O)c1sc(Cl)c(Br)c1C` [1.0127], the LogP is 1,66^[a]. The same measure, in the same setting: to `CCOC(=O)C(Cc1c[nH]c2ccccc12)NC(=O)c1sc(Cl)c(Br)c1C` (centres unmarked) [1.0128] belongs 4.15^[a]; to `COC(=O)C(Cc1c[nH]cn1)NC(=O)c1sc(Br)c(Cl)c1C` (centres unmarked) [1.0129], 1.47^[a]. Consider `CCOC(=O)C(Cc1ccc(O)cc1)NC(=O)c1sc(Br)c(Cl)c1C` (centres unmarked) [1.0130], for which the LogP is 3.29^[a]. Take `COC(=O)[C@H](CCCNC(=N)N)NC(=O)c1sc(Br)c(Cl)c1C` [1.0131]: the LogP is 1.71^[a].
